In ChEMBL document CHEMBL1201862, “PubChem BioAssay data set” (2004):
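Each compound was tested at five concentrations against cells in 96-well plates for 48 hours. Abbreviation: GI50, concentration required for 50% inhibition of growth.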 Calls of active or inactive are those of the source. Rule as the data show it: active = GI50 up to about 1.1 µM and inactive = higher.

What was measured:
Assay in all cases: DTP human tumour cell line panel, 48 h
786-0 = system: 786-0
A498 = system: A498
A549 = system: A549
ACHN = system: ACHN
BT-549 = system: BT-549
CAKI-1 = system: CAKI-1
CCRF-CEM = system: CCRF-CEM
COLO 205 = system: COLO 205
DU-145 = system: DU-145
EKVX = system: EKVX
HCC 2998 = system: HCC 2998
HCT-116 = system: HCT-116
HCT-15 = system: HCT-15
HL-60 = system: HL-60
HOP-62 = system: HOP-62
HOP-92 = system: HOP-92
HT-29 = system: HT-29
Hs-578T = system: Hs-578T
IGROV-1 = system: IGROV-1
K562 = system: K562
KM12 = system: KM12
LOX IMVI = system: LOX IMVI
M14 = system: M14
MCF7 = system: MCF7
MDA-MB-231 = system: MDA-MB-231
MDA-MB-435 = system: MDA-MB-435
MOLT-4 = system: MOLT-4
Malme-3M = system: Malme-3M
NCI-H226 = system: NCI-H226
NCI-H23 = system: NCI-H23
NCI-H460 = system: NCI-H460
NCI-H522 = system: NCI-H522
NCI/ADR-RES = system: NCI/ADR-RES
OVCAR-3 = system: OVCAR-3
OVCAR-4 = system: OVCAR-4
OVCAR-5 = system: OVCAR-5
OVCAR-8 = system: OVCAR-8
PC-3 = system: PC-3
RPMI-8226 = system: RPMI-8226
RXF 393 = system: RXF 393
SF-268 = system: SF-268
SF-295 = system: SF-295
SF-539 = system: SF-539
SK-MEL-28 = system: SK-MEL-28
SK-MEL-2 = system: SK-MEL-2
SK-MEL-5 = system: SK-MEL-5
SK-OV-3 = system: SK-OV-3
SN12C = system: SN12C
SNB-19 = system: SNB-19
SNB-75 = system: SNB-75
SR = system: SR
SW-620 = system: SW-620
T47D = system: T47D
TK-10 = system: TK-10
U-251 = system: U-251
UACC-257 = system: UACC-257
UACC-62 = system: UACC-62
UO-31 = system: UO-31
MDA-N = system: MDA-N

SMILES: Cc1ccc(C(=O)/C=C(O)/C(O)=C/C(=O)c2ccc(C)cc2C)c(C)c1
- GI50 (786-0): 2.03 µM (inactive)
- GI50 (A498): 2.04 µM (inactive)
- GI50 (A549): 2.48 µM (inactive)
- GI50 (ACHN): 1.84 µM (inactive)
- GI50 (BT-549): 1.64 µM (inactive)
- GI50 (CAKI-1): 2.07 µM (inactive)
- GI50 (CCRF-CEM): 0.175 µM (active)
- GI50 (COLO 205): 1.82 µM (inactive)
- GI50 (DU-145): 2.36 µM (inactive)
- GI50 (EKVX): 2.34 µM (inactive)
- GI50 (HCC 2998): 1.92 µM (inactive)
- GI50 (HCT-116): 2.32 µM (inactive)
- GI50 (HCT-15): 2 µM
- GI50 (HL-60): 0.0641 µM (active)
- GI50 (HOP-62): 1.58 µM (inactive)
- GI50 (HOP-92): 2.9 µM (inactive)
- GI50 (HT-29): 2.48 µM (inactive)
- GI50 (Hs-578T): 2.21 µM (inactive)
- GI50 (IGROV-1): 1.98 µM (inactive)
- GI50 (K562): 2.96 µM (inactive)
- GI50 (KM12): 1.88 µM (inactive)
- GI50 (LOX IMVI): 2.16 µM (inactive)
- GI50 (M14): 1.93 µM (inactive)
- GI50 (MCF7): 2.02 µM (inactive)
- GI50 (MDA-MB-231): 2.34 µM (inactive)
- GI50 (MDA-MB-435): 2.01 µM (inactive)
- GI50 (MOLT-4): 1.98 µM (inactive)
- GI50 (Malme-3M): 1.86 µM (inactive)
- GI50 (NCI-H226): 2.04 µM (inactive)
- GI50 (NCI-H23): 1.65 µM (inactive)
- GI50 (NCI-H460): 1.71 µM (inactive)
- GI50 (NCI-H522): 1.64 µM (inactive)
- GI50 (NCI/ADR-RES): 1.92 µM (inactive)
- GI50 (OVCAR-3): 1.76 µM (inactive)
- GI50 (OVCAR-4): 2.7 µM (inactive)
- GI50 (OVCAR-5): 2.06 µM (inactive)
- GI50 (OVCAR-8): 2.86 µM (inactive)
- GI50 (PC-3): 2.31 µM (inactive)
- GI50 (RPMI-8226): 2.01 µM (inactive)
- GI50 (RXF 393): 2.02 µM (inactive)
- GI50 (SF-268): 1.91 µM (inactive)
- GI50 (SF-295): 1.75 µM (inactive)
- GI50 (SF-539): 1.85 µM (inactive)
- GI50 (SK-MEL-28): 1.86 µM (inactive)
- GI50 (SK-MEL-2): 1.87 µM (inactive)
- GI50 (SK-MEL-5): 1.75 µM (inactive)
- GI50 (SK-OV-3): 1.94 µM (inactive)
- GI50 (SN12C): 2.1 µM (inactive)
- GI50 (SNB-19): 2.49 µM (inactive)
- GI50 (SNB-75): 1.95 µM (inactive)
- GI50 (SR): 2.33 µM (inactive)
- GI50 (SW-620): 2.37 µM (inactive)
- GI50 (T47D): 2.05 µM (inactive)
- GI50 (TK-10): 1.8 µM (inactive)
- GI50 (U-251): 1.75 µM (inactive)
- GI50 (UACC-257): 1.71 µM (inactive)
- GI50 (UACC-62): 1.79 µM (inactive)
- GI50 (UO-31): 1.36 µM (inactive)

SMILES: COc1cc(/C=N\c2nc(-c3ccc(NS(=O)(=O)c4ccc(Cl)c(OC)c4)cc3)cs2)ccc1O
- GI50 (786-0): > 100 µM (inactive)
- GI50 (A549): 74.6 µM (inactive)
- GI50 (ACHN): 50.7 µM (inactive)
- GI50 (BT-549): 28.8 µM (inactive)
- GI50 (CAKI-1): > 100 µM (inactive)
- GI50 (CCRF-CEM): 30.1 µM (inactive)
- GI50 (COLO 205): 30.1 µM (inactive)
- GI50 (DU-145): > 100 µM (inactive)
- GI50 (EKVX): 26.7 µM (inactive)
- GI50 (HCT-116): 37.7 µM (inactive)
- GI50 (HCT-15): > 100 µM
- GI50 (HL-60): 26.1 µM (inactive)
- GI50 (HOP-62): > 100 µM (inactive)
- GI50 (HOP-92): 24.9 µM (inactive)
- GI50 (HT-29): > 100 µM (inactive)
- GI50 (Hs-578T): 62.5 µM (inactive)
- GI50 (IGROV-1): 43.3 µM (inactive)
- GI50 (K562): 27.9 µM (inactive)
- GI50 (KM12): 29.2 µM (inactive)
- GI50 (LOX IMVI): 35.7 µM (inactive)
- GI50 (M14): 95.5 µM (inactive)
- GI50 (MCF7): 21 µM (inactive)
- GI50 (MDA-MB-435): 35.4 µM (inactive)
- GI50 (MDA-N): 29.6 µM (inactive)
- GI50 (MOLT-4): 16.4 µM (inactive)
- GI50 (Malme-3M): 45 µM (inactive)
- GI50 (NCI-H226): > 100 µM (inactive)
- GI50 (NCI-H23): 31.1 µM (inactive)
- GI50 (NCI-H522): 18.8 µM (inactive)
- GI50 (NCI/ADR-RES): > 100 µM (inactive)
- GI50 (OVCAR-3): 69.5 µM (inactive)
- GI50 (OVCAR-4): 35.2 µM (inactive)
- GI50 (OVCAR-5): > 100 µM (inactive)
- GI50 (OVCAR-8): 50.1 µM (inactive)
- GI50 (PC-3): 50.8 µM (inactive)
- GI50 (RPMI-8226): 21 µM (inactive)
- GI50 (RXF 393): 27.9 µM (inactive)
- GI50 (SF-268): 37.6 µM (inactive)
- GI50 (SF-295): > 100 µM (inactive)
- GI50 (SF-539): 47.5 µM (inactive)
- GI50 (SK-MEL-28): 33.2 µM (inactive)
- GI50 (SK-MEL-2): 32.2 µM (inactive)
- GI50 (SK-MEL-5): 62.8 µM (inactive)
- GI50 (SK-OV-3): > 100 µM (inactive)
- GI50 (SN12C): 42.3 µM (inactive)
- GI50 (SNB-19): > 100 µM (inactive)
- GI50 (SNB-75): 89.5 µM (inactive)
- GI50 (SR): 30.8 µM (inactive)
- GI50 (SW-620): 41.1 µM (inactive)
- GI50 (T47D): 17.4 µM (inactive)
- GI50 (UACC-62): 9.71 µM (inactive)
- GI50 (UO-31): 60.8 µM (inactive)

SMILES: O=S(=O)(Oc1ccc2oc3ccccc3c2c1-c1c(OS(=O)(=O)C(F)(F)F)ccc2oc3ccccc3c12)C(F)(F)F
- GI50 (786-0): > 100 µM (inactive)
- GI50 (A498): > 100 µM (inactive)
- GI50 (A549): > 100 µM (inactive)
- GI50 (ACHN): > 100 µM (inactive)
- GI50 (BT-549): > 100 µM (inactive)
- GI50 (CAKI-1): > 100 µM (inactive)
- GI50 (CCRF-CEM): > 100 µM (inactive)
- GI50 (COLO 205): > 92.3 µM (inactive)
- GI50 (DU-145): > 100 µM (inactive)
- GI50 (EKVX): > 100 µM (inactive)
- GI50 (HCC 2998): > 100 µM (inactive)
- GI50 (HCT-116): > 100 µM (inactive)
- GI50 (HCT-15): > 100 µM
- GI50 (HL-60): 8.28 µM (inactive)
- GI50 (HOP-62): > 100 µM (inactive)
- GI50 (HOP-92): > 100 µM (inactive)
- GI50 (HT-29): > 100 µM (inactive)
- GI50 (Hs-578T): > 100 µM (inactive)
- GI50 (IGROV-1): > 100 µM (inactive)
- GI50 (K562): > 100 µM (inactive)
- GI50 (KM12): > 100 µM (inactive)
- GI50 (LOX IMVI): > 100 µM (inactive)
- GI50 (M14): > 100 µM (inactive)
- GI50 (MCF7): > 100 µM (inactive)
- GI50 (MDA-MB-231): > 100 µM (inactive)
- GI50 (MDA-MB-435): > 100 µM (inactive)
- GI50 (MOLT-4): > 100 µM (inactive)
- GI50 (NCI-H226): > 100 µM (inactive)
- GI50 (NCI-H23): > 100 µM (inactive)
- GI50 (NCI-H460): > 100 µM (inactive)
- GI50 (NCI-H522): > 100 µM (inactive)
- GI50 (NCI/ADR-RES): > 100 µM (inactive)
- GI50 (OVCAR-3): > 100 µM (inactive)
- GI50 (OVCAR-4): > 100 µM (inactive)
- GI50 (OVCAR-5): > 100 µM (inactive)
- GI50 (OVCAR-8): > 100 µM (inactive)
- GI50 (PC-3): > 100 µM (inactive)
- GI50 (RPMI-8226): > 100 µM (inactive)
- GI50 (RXF 393): > 100 µM (inactive)
- GI50 (SF-268): > 100 µM (inactive)
- GI50 (SF-295): > 100 µM (inactive)
- GI50 (SF-539): > 100 µM (inactive)
- GI50 (SK-MEL-28): > 100 µM (inactive)
- GI50 (SK-MEL-2): > 100 µM (inactive)
- GI50 (SK-MEL-5): > 100 µM (inactive)
- GI50 (SK-OV-3): > 100 µM (inactive)
- GI50 (SNB-19): > 100 µM (inactive)
- GI50 (SR): > 100 µM (inactive)
- GI50 (SW-620): > 100 µM (inactive)
- GI50 (T47D): > 100 µM (inactive)
- GI50 (TK-10): > 100 µM (inactive)
- GI50 (U-251): > 100 µM (inactive)
- GI50 (UACC-257): > 100 µM (inactive)
- GI50 (UACC-62): > 100 µM (inactive)
- GI50 (UO-31): > 100 µM (inactive)
